# What was measured:
# [1] = test system: MRSA clinical isolates (Staphylococcus aureus resistant to methicillin); experiment: MIC by broth macrodilution; assay type: cell-based; conditions: for Range of MICs: 5 clinical isolates, 24 h at 35° C.
# Method: A panel of 10 clinical isolates of MRSA (5 MLSB-susceptible (susceptible to Macrolide-Lincosamide-Streptogramin B) and 5 C-MLSB-resistant (Constitutively Resistant to Macrolide-Lincosamide-Streptogramin B)) originating from various geographical areas were tested for their susceptibilities to quinupristin/dalfopristin and to cefepime. Two of these isolates, namely AW7 and P8, were further used for animal experiments. These both were C-MLSB-resistant.
# Bacteria were grown at 35° C., either in liquid cultures in tryptic soy broth (TSB; Difco Laboratories, Detroit, Mich.) or cation supplemented Mueller Hinton Broth (MHB; Difco), or on tryptic soy agar (TSA; Difco). All growth media were supplemented with 2% of sodium chloride to increase the expression of β-lactam resistance by MRSA. Bacterial stocks were kept at −70° C. in TSB, supplemented with 10% (vol/vol) glycerol.
# The MIC (minimum inhibitory concentration) of the tested antibiotics was determined by a known broth macrodilution method (D. Amsterdam, Susceptibility testing of antimicrobials in liquid media, p.52-111, In V. Lorian ed., Antibiotics in Laboratory Medicine, Williams and Wilkins, Baltimore (1996)) with final inoculum of 10^5 to 10^6 CFU/ml. The MIC was defined as the lowest antibiotic concentration that inhibited visible bacterial growth after 24 hours of incubation at 35° C.
# [2] = test system: C-MLSB resistant MRSA AW7 and P8; experiment: Experimental endocarditis in rats; assay type: in vivo, rat; conditions: i.v. pump simulating human kinetics, every 12 hours
# From the text: Sterile aortic vegetations were produced in female Wistar rats (weight 180 to 200 g) by the method of Heraiefet al., Infect Immunol., 37, 127-31 (1982), the disclosure of which is incorporated herein by reference in its entirety. Close by, an intravenous line containing a Silastic catheter was inserted into the jugular vein of a rat. The distal portion of the catheter was connected to a programmable pump device through a swivel, thus allowing the animals to move around their cage. The pump was set to deliver a volume of 0.2 ml of saline per hour to keep the line open until the onset of the therapy. In some experiments, quinupristine/dalfopristine was injected in combination with cefepime to the animals, with 2 infusion pumps, one to simulate human kinetics of quinupristine/dalfopristine and one to simulate human kinetics of cefepime. The 2 pumps were connected to a 2 way swivel and the drugs were infused into the animals via 2 independent jugular lines. No i.v. lines were placed in the control animals. Bacterial endocarditis was induced 24 hours after catheterization of the animals with 0.5 ml of saline containing 10^5 CFU of either of the test organisms. This inoculum was 10 times larger than the minimum inoculum producing endocarditis in 90% of the untreated rats.
# Treatment was started 12 hours after bacterial challenge and lasted 3 or 5 days. The distribution of the antibiotics simulated the drug kinetics in the serum of humans. Quinupristine/dalfopristine was given to simulate treatment in humans with 7 mg/kg of the drug administered i.v. every 12 hours. Cefepime was given to simulate treatment in humans with 2 g of the drug given i.v. every 12 hours. This required, for the experiment, a total amount (mg/kg of body weight) per 12 hours of 38 mg/kg of quinupristine/dalfopristine and 142 mg/kg of cefepime.
# The control rats were sacrificed at the onset of the treatment (i.e., 12 hours after inoculation) in order to measure both the frequency and the severity of valvular infection at the start of the therapy. Treated rats were sacrificed 12 hours after the low level of the last antibiotic dose of either test drug. At that time, no residual antibiotic could be detected in the blood. The valvular vegetation were dissected under sterile conditions, weighed, homogenized in 1 ml of saline, and serially diluted before being plated for colony counts. The number of colonies growing on the plates was determined after 48 hours of incubation at 35° C. Bacterial densities in the vegetations were expressed as log10 CFU/g of tissue. The minimum detection level was ≧2 log10 CFU/g of vegetation. For statistical comparisons of differences between the vegetation bacterial densities of various treatment groups, culture-negative vegetations were considered to contain 2 log10 CFU/g. […]
smiles,measurement,setting,value
"CO/N=C(\C(=O)N[C@@H]1C(=O)N2C(C(=O)[O-])=C(C[N+]3(C)CCCC3)CS[C@H]12)c1csc(N)n1 [cefepime, (6R,7R)-7-(2-(2-aminothiazol-4-yl)-2(Z)-(methoxyimino)acetamido)-3-(1-methyl-pyrrolidiniomethyl)-3-cephem-4-carboxylate]",Range of MICs,[1]; MRSA C-MLSB-R,>64 mg/L
same,Range of MICs,[1]; MRSA MLSB-S,>64 mg/L
same,MIC,"[1]; Staphylococcus aureus, C-MLSB resistant MRSA AW7 and P8",64 µg/mL
same,infected rats/total rats,[2]; Strain AW-7,6/6
same,median log10 CFU/g of vegetation,[2]; Strain AW-7,(8.6) log10 CFU/g
same,infected rats/total rats,[2]; Strain P8,8/8
same,median log10 CFU/g of vegetation,[2]; Strain P8,(9.0) log10 CFU/g
